Usually EC50 stands for the concentration needed to bring the measured effect to its halfway point.

The record followed here is US9920010B2, “CXCR7 receptor modulators” (IDORSIA PHARMACEUTICALS LTD, priority 2013, dated 2018).

The test has as its target T1, CXCR7 (Homo sapiens, UniProt P25106).
T1 construct: host or cells: CHO-K1 (PathHunter CHO-K1 CXCR7 b-arrestin cell line, stably transfected)
The test can be described thus: PathHunter CHO-K1 CXCR7 b-arrestin recruitment assay (CXCR7 agonistic activity). The test is classed as cell-based. Particulars: PathHunter CHO-K1 CXCR7 b-arrestin cell line. As to the method:
The CXCl12 receptor and CXCR7 agonistic activities of the compounds of formula (I) are determined in accordance with the following experimental method.
The assay is using the PathHunter™ CHO-K1 CXCR7 b-arrestin cell line from DiscoverX. The system is based on the Enzyme Fragment Complementation Technology. Two complementing fragments of the b-galactosidase enzyme are expressed within stably transfected cells. The larger portion of b-gal, termed EA for Enzyme Acceptor, is fused to the C-terminus of b-arrestin 2. The smaller fragment, termed ProLink™ tag, is fused to CXCR7 at the C-terminus. Upon activation, b-arrestin is recruited which forces the interaction of ProLink and EA, allowing complementation of the two fragments of b-gal and the formation of a functional enzyme which is capable of hydrolysing the substrate and generating a chemiluminescent signal.
CHO-K1 CXCR7 b-arrestin cells are detached from culture dishes with a cell dissociation buffer (Invitrogen, #13151-014) and collected in growing medium (F12 HAMS 90% (v/v)/FCS 10% (v/v), Penicillin/streptomycin 1% (v/v)). 5000 cells per well (in 20 μl) are seeded in a 384 well plate (white-walled, clear bottom; BD Falcon #353274). The plate is incubated at 37° C./5% CO2 for 24 hours. Medium is then replaced by 20 μl OPTIMEM (Invitrogen #31985) for 3 to 4 hours. Test compounds are dissolved at 10 mM in DMSO and serially diluted in DMSO to 200× of the final concentration for dose response curves. Compounds are then diluted 1:33.3 in HBSS1×. 5 μl/well of HBSS1×/20 mM HEPES/0.2% BSA are added to the assay plate followed by addition of 5 μl/well of diluted compounds. CXCL12 (Peprotech #300-28A) may be used as a reference agonist. The plate is incubated for 90 minutes at 37° C. 12 μl of detection reagent (Path Hunter Detection Kit, DiscoveRx, #93-0001) is transferred to the assay plate and to the plate is incubated for 1 hour at room temperature. Luminescent signal is read in a microplate reader (FLUOstar Optima, bmg). The calculated EC50 values may fluctuate depending on the daily cellular assay performance. Fluctuations of this kind are known to those skilled in the art. Average EC50 values from several measurements are given as geometric mean values.
A general note: Recruitment of arrestin is a read-out of receptor activation apart from second messengers.

T1 sequence (P25106 whole entry): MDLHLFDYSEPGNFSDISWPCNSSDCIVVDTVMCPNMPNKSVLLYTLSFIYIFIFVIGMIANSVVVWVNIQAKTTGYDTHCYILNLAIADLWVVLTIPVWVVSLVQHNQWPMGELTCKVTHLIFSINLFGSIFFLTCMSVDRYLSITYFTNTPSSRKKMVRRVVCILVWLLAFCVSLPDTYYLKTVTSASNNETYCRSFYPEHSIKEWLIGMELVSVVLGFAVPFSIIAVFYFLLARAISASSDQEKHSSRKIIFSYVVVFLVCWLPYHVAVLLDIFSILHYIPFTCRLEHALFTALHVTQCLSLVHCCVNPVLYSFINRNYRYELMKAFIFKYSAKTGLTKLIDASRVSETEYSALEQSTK
T1 sequence (P32121 whole entry partner): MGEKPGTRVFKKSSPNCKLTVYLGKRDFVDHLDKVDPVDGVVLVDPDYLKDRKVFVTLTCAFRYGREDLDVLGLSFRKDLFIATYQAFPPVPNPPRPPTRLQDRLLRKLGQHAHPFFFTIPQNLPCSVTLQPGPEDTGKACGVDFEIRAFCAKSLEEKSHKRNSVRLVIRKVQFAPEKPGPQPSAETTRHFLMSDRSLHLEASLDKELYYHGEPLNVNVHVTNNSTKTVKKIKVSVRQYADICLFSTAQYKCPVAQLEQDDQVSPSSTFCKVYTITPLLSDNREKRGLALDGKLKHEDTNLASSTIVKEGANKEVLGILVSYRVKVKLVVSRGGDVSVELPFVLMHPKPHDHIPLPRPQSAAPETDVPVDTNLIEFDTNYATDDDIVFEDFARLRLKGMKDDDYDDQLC

Take `CN(C)CCN(Cc1ccccc1C(F)(F)F)C(=O)CNc1cccc2c1CCN(c1nc(C(F)(F)F)cs1)C2` [Example 376, N-(2-Dimethylamino-ethyl)-N-(2-trifluoromethyl-benzyl)-2-[2-(4-trifluoromethyl-thiazol-2-yl)-1,2,3,4-tetrahydro-isoquinolin-5-ylamino]-acetamide]: it took 27 nM to reach a half-maximal effect (EC50).

Turning to `CCC(=O)N1CCc2cccc(NCC(=O)N(CCN(C)C)Cc3ccccc3C(F)(F)F)c2C1` [compound 559, N-(2-Dimethylamino-ethyl)-2-(2-propionyl-1,2,3,4-tetrahydro-isoquinolin-8-ylamino)-N-(2-trifluoromethyl-benzyl)-acetamide], the EC50 stood at 13 nM. Against the preceding compound, the EC50 is about 2.1-fold lower.

Take `CNCCN(Cc1ccccc1C(F)(F)F)C(=O)CNc1cccc2c1CC(=O)N(CC(C)C)C2` [compound 383]: a half-maximal effect (EC50) was put at 51 nM.

Compound `CN(C)CCN(Cc1ccccc1C(F)(F)F)C(=O)CCc1cccc2c1CN(CC1CC1)CC2` [compound 454, 3-(2-Cyclopropylmethyl-1,2,3,4-tetrahydro-isoquinolin-8-yl)-N-(2-dimethylamino-ethyl)-N-(2-trifluoromethyl-benzyl)-propionamide] registered an EC50 of 3 nM.

On to `CC(C)N(CCN(Cc1ccccc1C(F)(F)F)C(=O)CNc1cccc2c1CCN(CC1CC1)C2)C(C)C` [Example 219, 2-(2-Cyclopropylmethyl-1,2,3,4-tetrahydro-isoquinolin-5-ylamino)-N-(2-diisopropylamino-ethyl)-N-(2-trifluoromethyl-benzyl)-acetamide], for which a half-maximal effect (EC50) was put at 3 nM. That is a single-digit nanomolar value.

In the case of `CN(C)CCN(Cc1ccccc1C(F)(F)F)C(=O)CNc1cccc2c1CN(CC1CC1)CC2` [compound 475], a half-maximal effect (EC50) was put at 121 nM.

`CN(C)CCN(Cc1ccccc1C(F)(F)F)C(=O)NCc1cccc2c1CCN(CC1CC1)C2` [Example 568, 3-(2-Cyclopropylmethyl-1,2,3,4-tetrahydro-isoquinolin-5-ylmethyl)-1-(2-dimethylamino-ethyl)-1-(2-trifluoromethyl-benzyl)-urea] came in with an EC50 of 29 nM.

Compound `CCN1CCc2cccc(NCC(=O)N(CCN3CCCC3=O)Cc3ccccc3C(F)(F)F)c2C1` [compound 517] yielded an EC50 of 302 nM.

For `O=C(CNc1cccc2c1CCN(CC1CC1)C2)N(CCN1CCCC1)Cc1ccccc1C(F)(F)F` [Example 62, 2-(2-Cyclopropylmethyl-1,2,3,4-tetrahydro-isoquinolin-5-ylamino)-N-(2-pyrrolidin-1-yl-ethyl)-N-(2-trifluoromethyl-benzyl)-acetamide], the EC50 turned out to be 1 nM.

`O=C(CNc1cccc2c1CCN(CC1CC1)C2)N(CCN1CCCC(F)(F)C1)Cc1ncccc1C(F)(F)F` [Example 283, 2-(2-Cyclopropylmethyl-1,2,3,4-tetrahydro-isoquinolin-5-ylamino)-N-[2-(3,3-difluoro-piperidin-1-yl)-ethyl]-N-(3-trifluoromethyl-pyridin-2-ylmethyl)-acetamide]: the EC50 worked out at 11 nM.

As to `CN(C)CCN(Cc1ccccc1C(F)(F)F)C(=O)CNc1cccc2c1CN(S(=O)(=O)c1ccccc1)CC2` [compound 545], a half-maximal response (EC50) required 80 nM.

`O=C(CNc1cccc2c1CN(CC1CC1)CC2)N(CCN1CCC(F)(F)CC1)Cc1ccccc1C(F)(F)F` [compound 474, 2-(2-Cyclopropylmethyl-1,2,3,4-tetrahydro-isoquinolin-8-ylamino)-N-[2-(4,4-difluoro-piperidin-1-yl)-ethyl]-N-(2-trifluoromethyl-benzyl)-acetamide] showed an EC50 of 47 nM.

The compound `CNCCN(Cc1ccccc1C(F)(F)F)C(=O)CNc1cccc2c1CCN(C(=O)C1CCOC1)C2` (racemic) [compound 392] registered a 50% effective concentration (EC50) of 30 nM.

For `CN(C)CCN(Cc1ccccc1)C(=O)CNc1cccc2c1CCN(C(=O)OCC(C)(C)C)C2` [compound 127], the EC50 came out at 395 nM.

`CC(C)CN1CCc2c(cccc2NCC(=O)N(CCN(C)C)Cc2ccccc2)C1` [compound 112, N-Benzyl-N-(2-dimethylamino-ethyl)-2-(2-isobutyl-1,2,3,4-tetrahydro-isoquinolin-5-ylamino)-acetamide] displayed a 50% effective concentration (EC50) of 40 nM.

In turn, `O=C(/C=C/c1cccc2c1CCN(CC1CC1)C2)N(Cc1ccccc1)C1CCS(=O)(=O)C1` (stereo not shown) [compound 147] gave an EC50 of 16 nM.

`COC(=O)N1CCc2cccc(NCC(=O)N(CCN(C)C)Cc3ccccc3)c2C1` [Example 190, 8-({[Benzyl-(2-dimethylamino-ethyl)-carbamoyl]-methyl}-amino)-3,4-dihydro-1H-isoquinoline-2-carboxylic acid methyl ester]: the concentration giving a half-maximal response (EC50) was found to be 110 nM.

`CN(C)CCN(Cc1ccccc1C(F)(F)F)C(=O)C1(Nc2cccc3c2CCN(CC2CC2)C3)CC1` [Example 292, 1-(2-Cyclopropylmethyl-1,2,3,4-tetrahydro-isoquinolin-5-ylamino)-cyclopropanecarboxylic acid (2-dimethylamino-ethyl)-(2-trifluoromethyl-benzyl)-amide] returned a 50% effective concentration (EC50) of 103 nM.

The compound `CNCCN(Cc1ncccc1C(F)(F)F)C(=O)CNc1cccc2c1CCN(CC1CC1)C2` [compound 437, 2-(2-Cyclopropylmethyl-1,2,3,4-tetrahydro-isoquinolin-5-ylamino)-N-(2-methylamino-ethyl)-N-(3-trifluoromethyl-pyridin-2-ylmethyl)-acetamide] showed an EC50 of 5 nM. Compared with the last compound, the EC50 is about 21-fold lower.

As for `CC(C)CCN(Cc1ccccc1)C(=O)CNc1cccc2c1CN(C)CC2` [compound 183], the EC50 came to 140 nM.

The compound `CCC(=O)N1CCc2c(cccc2NCC(=O)N(CCN(CC)CC)Cc2ccccc2)C1` [Example 27, N-Benzyl-N-(2-diethylamino-ethyl)-2-(2-propionyl-1,2,3,4-tetrahydro-isoquinolin-5-ylamino)-acetamide] yielded an EC50 of 19 nM.

Consider `CN(C)CCN(Cc1ncccc1Br)C(=O)CNc1cccc2c1CN(C(=O)[C@H]1C[C@H]1F)CC2` (relative stereo) [compound 460], for which the response was half-maximal at 85 nM (EC50).

`CCC(=O)N1CCc2c(cccc2NCC(=O)N(CCN(C)C)Cc2cccc(OC)c2)C1` [Example 29, N-(2-Dimethylamino-ethyl)-N-(3-methoxy-benzyl)-2-(2-propionyl-1,2,3,4-tetrahydro-isoquinolin-5-ylamino)-acetamide] registered an EC50 of 174 nM. This EC50 is about 2-fold higher than that of the compound before.

For `CNCCN(Cc1ccccc1Br)C(=O)CNc1cccc2c1CCN(CC1CC1)C2` [compound 435, N-(2-Bromo-benzyl)-2-(2-cyclopropylmethyl-1,2,3,4-tetrahydro-isoquinolin-5-ylamino)-N-(2-methylamino-ethyl)-acetamide], the EC50 came to 7 nM.

Turning to `CN(C)CCN(Cc1ccccc1)C(=O)CNc1cccc2c1CCN(Cc1ccccc1)C2` [compound 123], the midpoint of the response, the EC50, lay at 120 nM.

For the compound `CN(C)CCN(Cc1cnc(N(C)C)nc1)C(=O)CNc1cccc2c1CCN(CC1CC1)C2` [Example 272, 2-(2-Cyclopropylmethyl-1,2,3,4-tetrahydro-isoquinolin-5-ylamino)-N-(2-dimethylamino-ethyl)-N-(2-dimethylamino-pyrimidin-5-ylmethyl)-acetamide], the EC50 was 230 nM.

In the case of `CN(C)CCN(Cc1ccccc1C(F)(F)F)C(=O)CNc1cccc2c1CCN(C(=O)C(C)(F)F)C2` [Example 362, 2-[2-(2,2-Difluoro-propionyl)-1,2,3,4-tetrahydro-isoquinolin-5-ylamino]-N-(2-dimethylamino-ethyl)-N-(2-trifluoromethyl-benzyl)-acetamide], the EC50 came out at 21 nM.

`COCCN1CCc2c(cccc2NCC(=O)N(Cc2ncccc2Cl)CC(C)(C)O)C1` [Example 307, N-(3-Chloro-pyridin-2-ylmethyl)-N-(2-hydroxy-2-methyl-propyl)-2-[2-(2-methoxy-ethyl)-1,2,3,4-tetrahydro-isoquinolin-5-ylamino]-acetamide] registered a concentration giving a half-maximal response (EC50) of 423 nM.

As to `COCCN1CCc2c(cccc2NCC(=O)N(CCN(C)C(=O)OC(C)(C)C)Cc2ccccc2C(F)(F)F)C1` [Example 297, {2-[{2-[2-(2-Methoxy-ethyl)-1,2,3,4-tetrahydro-isoquinolin-5-ylamino]-acetyl}-(2-trifluoromethyl-benzyl)-amino]-ethyl}-methyl-carbamic acid tert-butyl ester], it took 461 nM to reach a half-maximal effect (EC50).

Take `CNCCN(Cc1ncccc1C(F)(F)F)C(=O)CNc1cccc2c1CCN(C(=O)OC(C)C)C2` [compound 424]: a half-maximal effect (EC50) was put at 60 nM.

`O=C(CNc1cccc2c1CCN(CC1CC1)C2)N(CCc1ccc(F)cc1)Cc1ccccc1` [Example 75, N-Benzyl-2-(2-cyclopropylmethyl-1,2,3,4-tetrahydro-isoquinolin-5-ylamino)-N-[2-(4-fluoro-phenyl)-ethyl]-acetamide]: the EC50 was 137 nM.
